Test results: paper PMC10714182 (JACC: Basic to Translational Science, 2023)

Key:
[1] = system: Sugen-hypoxia (Su/Hx) mouse model of PAH; experiment: Sugen-hypoxia experimental PAH, prevention study; type: in vivo, C57BL/6 mice
[2] = system: Sugen-hypoxia (Su/Hx) mouse model of PAH; experiment: Sugen-hypoxia experimental PAH, interventional study; type: in vivo, C57BL/6 mice; conditions: intervention, treatment for 2 weeks after 2 weeks of PAH induction
[3] = molecular target: T1, 5-HT2B (Homo sapiens, UniProt P41595); experiment: 5-HT2B functional readouts; type: cell-based; conditions: calcium mobilization and G protein dissociation (BRET2)
T1 sequence (P41595 whole entry): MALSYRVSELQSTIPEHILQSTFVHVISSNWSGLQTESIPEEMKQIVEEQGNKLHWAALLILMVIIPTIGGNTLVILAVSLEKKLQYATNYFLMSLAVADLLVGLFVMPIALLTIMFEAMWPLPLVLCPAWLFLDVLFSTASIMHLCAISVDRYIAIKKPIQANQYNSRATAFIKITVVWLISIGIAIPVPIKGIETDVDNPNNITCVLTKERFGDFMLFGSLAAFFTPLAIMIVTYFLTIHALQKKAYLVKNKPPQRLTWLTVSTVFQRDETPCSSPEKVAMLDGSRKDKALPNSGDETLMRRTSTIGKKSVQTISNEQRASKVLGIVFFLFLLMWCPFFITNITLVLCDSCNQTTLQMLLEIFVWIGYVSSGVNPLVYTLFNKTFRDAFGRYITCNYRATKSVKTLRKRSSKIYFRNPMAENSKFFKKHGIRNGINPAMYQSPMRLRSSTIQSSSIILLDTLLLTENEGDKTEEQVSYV

[4] = molecular target: T1, 5-HT2B; conditions: read-out: previously reported IC50; cited from earlier work

behaviour in 5-HT2B functional readouts [3]: true antagonist
SMILES: Cc1cc(NC(=O)Nc2ccc3c(ccn3C)c2)sn1 [SB204741, N-(1-methyl-5-indolyl)-N'-(3-methyl-5-isothiazolyl)urea]
RVSP vs vehicle control-treated Su/Hx mice ([1]; osmotic pump 3 weeks, SB204741 1 mg/kg/d, VU6047534 10 mg/kg/d): significantly reduced
number of partially and fully muscularized small vessels (0-25 μm) ([1]; treatment before induction of experimental PAH): reduced the number of both partially and fully muscularized small vessels
number of partially and fully muscularized small vessels (0-25 μm) [2]: reduced the number of partially, but not fully, muscularized small vessels
IC50 [4]: 0.0393 µM
